Test results taken from ChEMBL document CHEMBL1949652, “First enantioselective syntheses of the dopamine D1 and D2 receptor modulators, (+)- and (-)-govadine” (Bioorg Med Chem Lett, 2012).

Legend:
D(2) dopamine receptor = D(2) dopamine receptor (Homo sapiens, UniProt P14416); assay: Antagonist activity at dopamine D2 receptor; assay type: functional
D(1A) dopamine receptor = D(1A) dopamine receptor (Homo sapiens, UniProt P21728); assay: Antagonist activity at dopamine D1 receptor; assay type: functional
Sequence of D(1A) dopamine receptor (P21728 whole entry): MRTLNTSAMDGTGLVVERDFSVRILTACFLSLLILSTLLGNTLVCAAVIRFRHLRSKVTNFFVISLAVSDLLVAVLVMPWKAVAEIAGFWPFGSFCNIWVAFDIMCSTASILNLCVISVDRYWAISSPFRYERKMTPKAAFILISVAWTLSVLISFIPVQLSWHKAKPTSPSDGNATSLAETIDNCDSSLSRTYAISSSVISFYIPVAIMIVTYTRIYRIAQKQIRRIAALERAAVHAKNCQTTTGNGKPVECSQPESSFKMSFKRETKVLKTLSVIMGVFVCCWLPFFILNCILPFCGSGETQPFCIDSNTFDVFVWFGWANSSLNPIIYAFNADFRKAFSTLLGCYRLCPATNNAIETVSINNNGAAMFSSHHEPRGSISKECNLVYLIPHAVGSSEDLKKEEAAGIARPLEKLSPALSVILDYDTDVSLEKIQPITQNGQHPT

Sequence of D(2) dopamine receptor (P14416 whole entry): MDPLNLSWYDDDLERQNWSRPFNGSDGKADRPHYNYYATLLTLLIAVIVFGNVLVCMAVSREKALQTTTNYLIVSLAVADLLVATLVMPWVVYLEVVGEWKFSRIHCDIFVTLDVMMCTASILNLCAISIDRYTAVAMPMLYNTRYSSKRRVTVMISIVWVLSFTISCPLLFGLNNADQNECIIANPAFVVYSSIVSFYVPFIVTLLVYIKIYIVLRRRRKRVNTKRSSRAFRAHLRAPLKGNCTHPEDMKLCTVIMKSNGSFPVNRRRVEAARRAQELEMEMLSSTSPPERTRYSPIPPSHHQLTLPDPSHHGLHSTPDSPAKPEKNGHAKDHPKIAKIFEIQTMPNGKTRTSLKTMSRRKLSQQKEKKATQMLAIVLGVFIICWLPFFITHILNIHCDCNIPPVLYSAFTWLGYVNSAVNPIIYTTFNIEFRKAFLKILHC

| EC50 (D(2) dopamine receptor) [µM] | EC50 (D(1A) dopamine receptor) [µM] | SMILES |
| --- | --- | --- |
| 14 | > 100 | COc1cc2c(cc1O)CN1CCc3cc(OC)c(O)cc3[C@H]1C2 |
| 56 | 0.0056 | COc1cc2c(cc1O)CN1CCc3cc(OC)c(O)cc3[C@@H]1C2 |
